From patent US10202427B2, “Esculentin-2CHa peptide and analogues thereof” (UNIVERSITY OF ULSTER, priority 2014, dated 2019)

Experiments:
BRIN-BD11 cells [1] = assay: Insulin release from BRIN-BD11 cells (radioimmunoassay); format: cell-based
Experimental: BRIN-BD11 cells (Public Health England; Cat. No: 10033003) were grown at 37° C. in an atmosphere of 5% CO2 and 95% air in RPMI-1640 tissue culture medium containing 10% (v/v) fetal calf serum, antibiotics (100 U/ml penicillin, 0.1 mg/ml streptomycin) and 11.1 mM glucose as previously described (Marenah et al, 2004; Conlon et al, 2008; and Mechkarska et al, 2011). The cells were pre-incubated for 40 min at 37° C. in 1.0 ml Krebs Ringer bicarbonate (KRB) buffer, pH 7.4 supplemented with either 5.6 mM or 16.7 mM glucose and 0.1% (w/v) bovine serum albumin (Conlon et al, 2008). Incubations with synthetic peptides (10^−12-3×10^−6 M; n =8) were performed for 20 min at 37° C. using the same buffer. After incubation, aliquots of cell supernatant were removed for insulin radioimmunoassay as described by Flatt and Bailey (1981).

BRIN-BD11 cells [2] = assay: Insulin release from BRIN-BD11 cells with known modulators of insulin secretion / extracellular calcium; format: cell-based; conditions: 16.7 mM glucose; peptide 10^-6 M
Experimental: Cellular mechanism of actions of synthetic peptides was investigated by measuring insulin-release from BRIN-DB11 cells in the presence or absence of synthetic peptides (10^−6M) and known modulators of insulin-release. These additional incubations were carried in (a) medium supplemented with 16.7 mM glucose, (b) calcium-free medium supplemented with 5.6 mM glucose, (c) medium containing 5.6 mM glucose and diazoxide ([…]), (d) medium containing 5.6 mM glucose and verapamil ([…]), and (e) medium supplemented with 16.7 mM glucose and 30 mM KCl. Cells were incubated for 20 min at 37° C. and insulin concentrations in cell supernatants were measured by radioimmunoassay (Flatt and Bailey (1981)).
Without being bound by theory, by incubating BRIN-BD11 cells with the known modulators of insulin release in the absence or presence of the peptides and peptide analogues of the present invention (10^-6M), it was shown that the stimulatory effect of the peptides was inhibited in the presence of verapamil (50 μM) and chelation of extracellular calcium but completely abolished in the presence of diazoxide (200 μM). Moreover, insulin secretion increased with the co-incubation of the peptide with IBMX (200 μM), and tolbutamide (200 μM).

BRIN-BD11 cells [3] = assay: Membrane potential in BRIN-BD11 cells (fluorimetric); format: cell-based; conditions: peptide 1 μM, 10 min, vs 5.6 mM glucose alone
Experimental: (§1) Changes in membrane potential and [Ca^2+]i were determined fluorimetrically using monolayers of BRIN-BD11 cells as previously described by Miguel et al (2004) and Abdel-Wahab et al (2007) using a membrane potential assay kit or a Ca^2+ assay kit (Molecular Devices, Sunnyvale, Calif., USA) according to the manufacturer's recommended protocols. Data were acquired using a FlexStation scanning fluorimeter with integrated fluid transfer workstation (Molecular Devices). The cells were incubated at 37° C. for 10 min with synthetic peptides at a concentration of 1 μM. Control incubations in the presence of 5.6 mM glucose only, 30 mM KCl, and 10 mM alanine were also carried out.

BRIN-BD11 cells [4] = assay: Intracellular calcium in BRIN-BD11 cells (fluorimetric); format: cell-based; conditions: peptide 1 μM, 10 min, vs 5.6 mM glucose alone
Experimental: as §1

NIH Swiss TO mice = assay: Acute in vivo glucose tolerance study, i.p. glucose with peptide; conditions: peptide 75 nmol/kg bw i.p. with glucose; for plasma insulin concentration after intraperitoneal glucose load: mice
Experimental: (§2) All animal experiments were carried out in accordance with the UK Animals (Scientific Procedures) Act 1986 and EC Directive 86/609/EEC for animal experiments. For acute in vivo glucose tolerance studies, age-matched groups (n =6) of overnight fasted male NIH Swiss TO mice received an intraperitoneal injection of either glucose alone (32% w/v) or in combination with synthetic peptides (75 nmol/kg body weight). All solutions were administered in 0.9% NaCl (5 ml/kg body weight). Blood glucose concentrations were measured by Bayer Ascencia Blood glucose meter and plasma insulin concentrations were measured by radioimmunoassay as described by Flatt and Bailey (1981). For chronic in vivo studies, male NIH Swiss TO mice were fed high fat diet or standard diet from 8 weeks of age to 27 weeks of age. Peptides were administered twice daily for 28 days. No adverse effects were observed following administration of the peptide. Parameters including body weight, energy intake, blood glucose and plasma insulin levels were monitored once in three days for 28 days. Body weight and energy intake were measured by weighing mice and food weights respectively. At the end of the study, to determine glucose tolerance, glucose (18 mmol/kg bw) was injected (i.p) to overnight fasted mice and blood glucose levels were monitored at 0, 15, 30, 60 and 90 minutes. To determine insulin sensitivity, insulin (25 U/kg bw) was injected and blood glucose levels were monitored at 0, 15, 30 and 60 minutes. To determine blood glucose profile over a period of 24 h, blood glucose levels were monitored at 0 (before peptide administration), 2, 4, 8 (before peptide administration) and 24 h (before peptide administration). Lean and fat mass were determined by DXA scanning and terminal blood and tissues were collected for ex vivo studies including pancreatic islet morphology, hormone content, lipid profile and islet function.

[5] = tested on: Swiss TO mice on high fat diet; assay: Chronic in vivo study, twice-daily peptide for 28 days in high fat fed mice; conditions: for glucose tolerance: end of 28 day study, glucose 18 mmol/kg bw i.p., overnight fasted; for blood glucose levels during treatment: monitored once in three days for 28 days; for effect on body weight change relative to Exendin-4 / body weight change (Day 0-Day 28): twice daily; for effect on body weight change relative to Exendin-4 / body weight change (Day 0-Day 28) / plasma insulin levels during treatment: 28 days; for body weight change (Day 0-Day 28): vs lean and high fat diet saline control
Experimental: as §2, with “No adverse effects were observed following administration of the peptide.” left out
In vivo anti-diabetic effects of Exendin-4, Esculentin-2CHa-(GA30), [D-Arg7, D-Lys15,D-Lys23]-esculentin-2CHa-(GA30), and Lys15-octanoate-Esculentin-2CHa-(GA30) were assessed using Swiss TO mice fed high fat diet, with appropriate controls (saline treated mice on standard diet or high fat diet).

[6] = vs high fat diet saline control

Row | Substance | plasma insulin concentration after intraperitoneal glucose load (NIH Swiss TO mice) | glucose tolerance [5] | effect on body weight change relative to Exendin-4 [5] | body weight change (Day 0-Day 28) [5] | islet area, beta and alpha cell area [5, 6] | plasma insulin area under curve [5, 6] | other results
1 | Esculentin-2CHa | increase plasma insulin concentrations | – | – | – | – | – | insulin release from BRIN-BD11 cells (BRIN-BD11 cells [1]; 5.6 mM glucose, peptides 10^-12-3x10^-6 M, 20 min): dose-dependent stimulatory effects; insulin-release stimulatory effects in the presence of high glucose (BRIN-BD11 cells [2]): retained; membrane depolarization (BRIN-BD11 cells [3]): significantly enhanced membrane depolarization; intracellular calcium (BRIN-BD11 cells [4]): caused an increase in intracellular calcium; plasma glucose after intraperitoneal glucose load (NIH Swiss TO mice; mice with diet-induced obesity diabetes (so in the source)): significantly reduced plasma glucose concentration; plasma insulin concentration after intraperitoneal glucose load (NIH Swiss TO mice; listed as esculentin-2CHa): significantly increased
2 | Lys15-octanoate-Esculentin-2CHa-(GA30) | – | improved glucose tolerance, with lowered plasma glucose and insulin levels | comparable to Exendin-4 | significant reduction in body weight | significantly reduced islet area, beta and alpha cell area | markedly lower than high fat diet saline control | blood glucose levels during treatment [5]: reduced blood glucose levels markedly from day 6; LDL levels [5, 6]: reduced LDL levels; plasma insulin levels during treatment [5, 6]: reduced plasma insulin levels significantly from day 12
3 | [Lys20, Lys27]-Esculentin-2CHa-(GA30) | significantly increased | – | – | – | – | – | –
4 | [D-Arg7, D-Lys15,D-Lys23]-esculentin-2CHa-(GA30) | – | improved glucose tolerance, with lowered plasma glucose and insulin levels | comparable to Exendin-4 | significant reduction in body weight | significantly reduced islet area, beta and alpha cell area | markedly lower than high fat diet saline control | blood glucose levels during treatment [5]: reduced blood glucose levels from day 21
5 | Esculentin-2CHa-(GA30) | significantly increased | improved glucose tolerance, with lowered plasma glucose and insulin levels | comparable to Exendin-4 | significant reduction in body weight | significantly reduced islet area, beta and alpha cell area | markedly lower than high fat diet saline control | insulin-releasing potency compared to native peptide (BRIN-BD11 cells [1]; at lower concentrations): more potent than the native peptide at lower concentrations; acute in vivo effects compared to native peptide (NIH Swiss TO mice): comparable to the effects of native esculentin-CHa; plasma insulin levels during treatment [5, 6]: reduced plasma insulin levels significantly from day 12
6 | Exendin-4 [reference compound] | – | improved glucose tolerance, with lowered plasma glucose and insulin levels | – | significant reduction in body weight | significantly reduced islet area, beta and alpha cell area | – | –
7 | [Lys20, Lys27, Ser31, Ser37]-Esculentin-2CHa | significantly increased | – | – | – | – | – | acute in vivo effects compared to native peptide (NIH Swiss TO mice): comparable to the effects of native esculentin-CHa
